Reference: ChEMBL document CHEMBL1129997 (J Med Chem, 1997)

What was measured:
T78-1 = experiment: Cytotoxicity in T78-1 (NR-negative) cell lines; assay type: functional, cell-based; conditions: Cricetulus griseus
[1] = biological target: T1, Modulator of drug activity A (Escherichia coli O157:H7) (UniProt Q8X6S1); experiment: IC50 ratio for NR-positive and NR-negative cell lines; assay type: functional
T1 sequence (whole entry): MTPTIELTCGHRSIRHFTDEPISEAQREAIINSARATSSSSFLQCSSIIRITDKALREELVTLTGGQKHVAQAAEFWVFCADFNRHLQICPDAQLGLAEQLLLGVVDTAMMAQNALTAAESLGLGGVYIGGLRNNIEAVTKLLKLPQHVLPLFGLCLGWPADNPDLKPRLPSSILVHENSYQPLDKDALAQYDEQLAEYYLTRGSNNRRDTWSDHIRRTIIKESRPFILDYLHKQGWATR

T78-1/T79-A3 = experiment: TE50 is termed as Bystander effect evaluated in T78-1 and T79-A3 cell lines; assay type: functional, Cricetulus griseus; design: unit not given beside the values

| SMILES | IC50 (T78-1) [µM] | Ratio [1] | TE50 (T78-1/T79-A3) |
| --- | --- | --- | --- |
| CS(=O)(=O)CCN(CCS(C)(=O)=O)c1cc(C(N)=O)c([N+](=O)[O-])cc1[N+](=O)[O-] | > 1000 |  |  |
| NC(=O)c1cc(N(CCBr)CCBr)c([N+](=O)[O-])cc1[N+](=O)[O-] | 633 | 2530 | 0.1 |
| O=C(NCC(O)CO)c1cc([N+](=O)[O-])cc([N+](=O)[O-])c1N(CCCl)CCCl (stereo not drawn) | 919 |  | 12 |
| NC(=O)c1cc(N(CCI)CCI)c([N+](=O)[O-])cc1[N+](=O)[O-] | 71 | 494 | 0.3 |
| NC(=O)c1cc([N+](=O)[O-])cc([N+](=O)[O-])c1N(CCI)CCI | 58 |  | 0.4 |
| NC(=O)c1cc([N+](=O)[O-])cc([N+](=O)[O-])c1N(CCCl)CCCl | > 1000 | > 133 |  |
| O=C(NCC(O)CO)c1cc(N(CCCl)CCCl)c([N+](=O)[O-])cc1[N+](=O)[O-] (stereo not drawn) | > 5000 | > 55 |  |
| CN(C)CCNC(=O)c1c([N+](=O)[O-])ccc(N(CCCl)CCCl)c1[N+](=O)[O-] | 722 | 0.8 |  |
| NC(=O)c1cc(N(CCCl)CCCl)c([N+](=O)[O-])cc1[N+](=O)[O-] | 895 | 63 | 3.7 |
| O=C(NCC(O)CO)c1cc([N+](=O)[O-])cc([N+](=O)[O-])c1N(CCI)CCI (stereo not drawn) | 86 | 21.5 | 7 |
| NC(=O)c1cc([N+](=O)[O-])cc([N+](=O)[O-])c1N(CCBr)CCBr | 17.5 |  | 0.22 |
| CS(=O)(=O)c1cc([N+](=O)[O-])c(C(N)=O)cc1N(CCCl)CCCl | > 1000 | > 17 |  |
| CS(=O)(=O)CCN(CCCl)c1cc(C(N)=O)c([N+](=O)[O-])cc1[N+](=O)[O-] | > 1000 |  |  |
| NC(=O)c1cc(N2CC2)c([N+](=O)[O-])cc1[N+](=O)[O-] [TRETAZICAR] | 158 |  | 1 |
| O=C(NCC(O)CO)c1cc(N(CCI)CCI)c([N+](=O)[O-])cc1[N+](=O)[O-] (stereo not drawn) | 793 |  | 0.45 |
| NC(=O)c1c([N+](=O)[O-])ccc(N(CCCl)CCCl)c1[N+](=O)[O-] | > 1000 |  |  |
